Assay results reported in patent US10106526B2, “Inhibitors of cyclin-dependent kinase 7 (CDK7)” (SYROS PHARMACEUTICALS, INC., priority 2014, dated 2018).

Assays:
[1] = biological target: CDK7/Cyclin H/MAT1 trimeric complex (Homo sapiens, UniProt P50613); assay: CDK7 kinase assay, Caliper/LabChip EZ Reader (Biortus Biosciences); assay type: biochemical; conditions: CDK7/Cyclin H/MAT1 10 nM, ATP 2 mM, FAM-CDK7tide 2 μM, 30 min incubation, read-out: CDK7 Inhibition (IC50)
Method: Compounds of the invention were further assayed for CDK7 activity at Biortus Biosciences (Jiangyin, Jiangsu Province, P.R. of China) using a CDK7 kinase assay developed with a Caliper/LabChip EZ Reader (Perkin Elmer, Waltham, Mass.). […] The incubation period was chosen such that the total fraction of phosphorylated peptide product produced was <20% for the uninhibited kinase.

A673 cells = assay: Inhibition of proliferation of A673 cells (CyQUANT, 72 hour); assay type: cell-based, human; conditions: 72 hour proliferation
Method in brief: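 Human Ewing's sarcoma A673 cells in DMEM + 10% FBS + 1 mM sodium pyruvate, 37 °C, 5% CO2, exposed to compounds from 4 μM to 126.4 pM (0.5 log dilutions) for 72 h. Proliferation read by CyQUANT; IC50 reported as binned categories.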

Chain of CDK7/Cyclin H/MAT1 trimeric complex (P50613 whole entry): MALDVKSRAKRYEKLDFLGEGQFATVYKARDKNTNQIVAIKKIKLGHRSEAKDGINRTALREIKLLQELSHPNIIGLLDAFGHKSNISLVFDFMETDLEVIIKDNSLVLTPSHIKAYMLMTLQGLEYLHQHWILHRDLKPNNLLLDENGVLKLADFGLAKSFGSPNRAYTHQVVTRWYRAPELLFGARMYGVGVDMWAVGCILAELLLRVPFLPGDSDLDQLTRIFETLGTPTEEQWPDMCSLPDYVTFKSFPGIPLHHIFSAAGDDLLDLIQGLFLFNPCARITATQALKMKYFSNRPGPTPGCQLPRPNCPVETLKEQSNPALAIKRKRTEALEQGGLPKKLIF
Chain of CDK7/Cyclin H/MAT1 trimeric complex (P51946 whole entry partner): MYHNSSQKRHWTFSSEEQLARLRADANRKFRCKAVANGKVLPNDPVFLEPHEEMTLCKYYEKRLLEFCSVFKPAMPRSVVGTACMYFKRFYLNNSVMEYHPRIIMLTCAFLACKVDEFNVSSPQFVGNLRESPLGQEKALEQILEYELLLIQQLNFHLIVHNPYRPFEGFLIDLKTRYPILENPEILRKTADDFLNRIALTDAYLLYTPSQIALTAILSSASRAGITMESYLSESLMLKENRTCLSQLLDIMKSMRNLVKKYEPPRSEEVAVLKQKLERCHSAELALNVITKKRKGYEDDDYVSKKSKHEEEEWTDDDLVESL
Chain of CDK7/Cyclin H/MAT1 trimeric complex (P51948 whole entry partner): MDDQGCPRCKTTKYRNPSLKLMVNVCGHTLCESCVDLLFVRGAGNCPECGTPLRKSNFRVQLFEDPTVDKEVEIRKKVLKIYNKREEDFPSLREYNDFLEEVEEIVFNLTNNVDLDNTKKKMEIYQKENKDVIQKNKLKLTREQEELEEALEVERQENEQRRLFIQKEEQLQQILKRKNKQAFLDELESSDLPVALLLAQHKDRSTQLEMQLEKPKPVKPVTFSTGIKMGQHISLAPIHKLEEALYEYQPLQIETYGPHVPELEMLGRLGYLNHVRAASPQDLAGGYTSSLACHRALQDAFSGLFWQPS

Row | IC50 [1] [nM] | Compound | IC50 (A673 cells; Homo sapiens) [nM] | IC50 (A673 cells) [nM]
1 | < 100 | CN(C)C/C=C/C(=O)N(C)c1ccc(CN[C@H]2CCC[C@@H](Nc3ncc(Cl)c(-c4c[nH]c5ccccc45)n3)C2)nc1 [Compound 390, (E)-N-(6-((((1S,3R)-3-((5-chloro-4-(1H-indol-3-yl)pyrimidin-2-yl)amino)cyclohexyl)amino)methyl)pyridin-3-yl)-4-(dimethylamino)-N-methylbut-2-enamide] | < 500 | –
2 | < 100 | CCc1cnc(N[C@@H]2CCC[C@](C)(NC(=O)c3ccc(NC(=O)/C=C/CN(C)C)cn3)C2)nc1-c1c[nH]c2ccccc12 [Compound 407, 5-[[(E)-4-(dimethylamino)but-2-enoyl]amino]-N-[(1S,3R)-3-[[5-ethyl-4-(1H-indol-3-yl)pyrimidin-2-yl]amino]-1-methyl-cyclohexyl]pyridine-2-carboxamide] | < 500 | –
3 | < 100 | CN(C)C/C=C/C(=O)Nc1ccc(CN[C@H]2CCC[C@@H](Nc3ncc(Cl)c(-c4c[nH]c5ccccc45)n3)C2)nc1 [Compound 261] | < 500 | –
4 | < 100 | CN(C)C/C=C/C(=O)Nc1ccc(C(=O)N[C@@]2(C)CCC[C@@H](Nc3ncc(Cl)c(-c4c[nH]c5ccccc45)n3)C2)nc1 [Compound 267, N-((1S,3R)-3-(5-chloro-4-(1H-indol-3-yl)pyrimidin-2-ylamino)-1-methylcyclohexyl)-5-((E)-4-(dimethylamino)but-2-enamido)picolinamide] | < 500 | –
5 | < 100 | CN(C)C/C=C/C(=O)Nc1ccc(C(=O)N[C@H]2CCC[C@@H](Nc3ncc(Cl)c(-c4cccc5c4ccn5C)n3)C2)nc1 [Compound 269, N-((1S,3R)-3-((5-chloro-4-(1-methyl-1H-indol-4-yl)pyrimidin-2-yl)amino)cyclohexyl)-5-((E)-4-(dimethylamino)but-2-enamido)picolinamide] | < 500 | –
6 | < 100 | CCc1cnc(N[C@@H]2CCC[C@](C)(NCc3ccc(NC(=O)/C=C/CN(C)C)cn3)C2)nc1-c1n[nH]c2ccccc12 [Compound 413, (E)-4-(dimethylamino)-N-[6-[[[(1S,3R)-3-[[5-ethyl-4-(1H-indazol-3-yl)pyrimidin-2-yl]amino]-1-methyl-cyclohexyl]amino]methyl]-3-pyridyl]but-2-enamide] | < 500 | –
7 | < 100 | C=CC(=O)N1CCC[C@@H](NCc2ccc(Nc3ncc(Cl)c(-c4c[nH]c5ccccc45)n3)cc2)C1 [compound 393] | – | < 500
8 | < 100 | C=CC(=O)N1CC(F)(F)C[C@H]1C(=O)N[C@H]1CCC[C@@H](Nc2ncc(Cl)c(-c3n[nH]c4ccccc34)n2)C1 [compound 391] | – | < 500
9 | < 100 | CN(C)C/C=C/C(=O)N1CC(F)(F)C[C@H]1C(=O)N[C@H]1CCC[C@@H](Nc2ncc(Cl)c(-c3c[nH]c4ccccc34)n2)C1 [compound 394] | – | < 500
10 | < 100 | Cc1cnc(N[C@@H]2CCC[C@H](NC(=O)c3ccc(NC(=O)/C=C/CN(C)C)cn3)C2)nc1-c1c[nH]c2ccccc12 [Compound 265, N-((1S,3R)-3-((4-(1H-indol-3-yl)-5-methylpyrimidin-2-yl)amino)cyclohexyl)-5-((E)-4-(dimethylamino)but-2-enamido)picolinamide] | < 500 | –
11 | < 100 | C=CC(=O)N1CCN([C@H]2CCC[C@@H](Nc3ncc(Cl)c(-c4nnc5ccccn45)n3)C2)CC1 [Compound 344, 1-(4-((1S,3R)-3-((4-([1,2,4]triazolo[4,3-a]pyridin-3-yl)-5-chloropyrimidin-2-yl)amino)cyclohexyl)piperazin-1-yl)prop-2-en-1-One] | < 500 | –
12 | < 100 | CN(C)C/C=C/C(=O)Nc1ccc(C(=O)N[C@@]2(C)CCC[C@@H](Nc3ncc(C(F)(F)F)c(-c4c[nH]c5ccccc45)n3)C2)nc1 [Compound 399, 5-[[(E)-4-(dimethylamino)but-2-enoyl]amino]-N-[(1S,3R)-3-[[4-(1H-indol-3-yl)-5-(trifluoromethyl)pyrimidin-2-yl]amino]-1-methyl-cyclohexyl]pyridine-2-carboxamide] | < 500 | –
